The experiment relates to S. cerevisiae Mot1-301 ts growth rescue, BacTiter-Glo ATP luminescence. In words: growth rescue of Mot1-301 ts yeast, confirmation, SUMOylation pathway inhibitor project, whole organism, S. cerevisiae, Mot1-301 ts mutant, luminescence, dose retest (AID 463204).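 Further: growth at restrictive 38.5 degrees C of Mot1-301 OY566 strain; actives raise luminescence by restoring growth of the ts mutant at high temperature.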

Activity calls are given as the source filed them.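 How the source made its calls: active means AC50 no more than ten times the top concentration tested, that is within one log above it; inconclusive means flat curve fit with activity between 30% and 70%, or invalid poor fit; inactive means AC50 beyond ten times the top tested dose.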

For `COC(=O)CCC(=O)OC1(C)C(=O)C=C2C=C(C3CC3)N(Cc3ccc4c(c3)OCO4)C=C2C1=O` (stereo not drawn), the AC50 was > 42 µM (inactive).
As to `CCOC(=O)c1nc(Nc2ccccc2CC)c2ccccc2n1`, the AC50 is > 42 µM (inactive).
For the compound `Cc1ccc(C)c(NC(NC(=O)c2ccccn2)C(Cl)(Cl)Cl)c1` (stereo not drawn), the AC50 is > 42 µM (inactive).
In the case of `Cc1ccc(NC2c3ncccc3C(=O)N2C2CCCCC2)cc1C` (stereo not drawn), the AC50 is 32.5 µM.
As to `O=c1c2c(ncn1Cc1ccccc1)nc1n2CCC1`, the AC50 was > 42 µM (inactive).
As for `CSc1ccccc1-c1nc(-c2ccncc2)no1`, the AC50 was > 42 µM (inactive).
Take `COc1ccc(C)cc1S(=O)(=O)N1CCC(C(=O)NCCc2ccccc2)CC1`: the AC50 was > 42 µM (inactive).
On to `CCC(C)[C@H](NC(=O)Nc1ccc(S(N)(=O)=O)cc1)C(=O)OC` (stereo partly drawn), for which the AC50 is > 42 µM (inactive).
Take `O=C(Nc1ccsc1C(=O)O)c1cccc(C(F)(F)F)c1`: the AC50 was > 42 µM (inactive).
Next, `COC(=O)c1c(C)cc(O)c(C=O)c1O`: 17.7 µM; `CCCCC(=O)NC(=S)Nc1cccc(C(=O)O)c1`: > 42 µM (inactive).
As to `CCOc1ccc(/C=N/NC(=O)c2ccc(CSc3nc4ccccc4[nH]3)cc2)cc1`, the AC50 was > 42 µM (inactive).
To `CN(CC(=O)N1CCc2[nH]c3ccc(F)cc3c2C1)CC1OCCO1` belongs > 42 µM (inactive); to `CCOC(=O)c1ccc(CNC(=O)Cn2nnc(-c3ccc(C)cc3)n2)o1`, > 42 µM (inactive); to `CN(CCOc1ccc(-c2ccn(S(=O)(=O)c3cccc4ccccc34)n2)cc1)c1ccccn1`, > 42 µM (inactive).
For the compound `O=C1NC(=O)C(=Cc2ccc(N3CCOCC3)cc2)C(=O)N1`, the AC50 was > 42 µM (inactive).
Regarding `Cc1ccc(/C=C2\SC(N3CCCC3)=NC2=O)cc1`, the AC50 was > 42 µM (inactive).
Take `CN(C)C(=O)CCN1CCOCC1`: the AC50 was > 42 µM (inactive).
Consider `CCc1nnc(NC(=O)CSc2ccc(-c3ccc(-n4cccn4)cc3)nn2)s1`, for which the AC50 is > 42 µM (inactive).
As for `C/C=C/C(=O)N1c2ccc(C)cc2C(C)=CC1(C)C`, the AC50 is > 42 µM (inactive).
In the case of `S=c1[nH]nc(-c2ccccn2)n1/N=C/c1ccccc1`, the AC50 is > 42 µM (inactive).
`O=C(COC(=O)C1CC(=O)N(Cc2ccccc2)C1)Nc1ccccc1F` (stereo not drawn): the AC50 is > 21 µM (inactive).
For `C[C@H]1O[C@H]1P(=O)(O)O`, the AC50 was > 42 µM (inactive).
Consider `O=C(Nc1ccc(F)cc1F)N1CCCN(c2ccc(C(F)(F)F)cn2)CC1`, for which the AC50 is > 42 µM (inactive).
As for `COc1ccc(NC(=O)COc2cc(C)cc(C)c2)cc1S(=O)(=O)N1CCCCC1`, the AC50 is > 42 µM (inactive).
For the compound `O=C(Nc1ccncc1Cl)c1ccncc1`, the AC50 is > 42 µM (inactive).
As to `CC(=O)Nc1ccc(/C(C)=N/NC(=O)c2ccncc2)cc1`, the AC50 was > 42 µM (inactive).
As for `CCc1nnc(NC(=O)CSc2nc3c(cc2C#N)CCCC3)s1`, the AC50 was > 42 µM (inactive).
As for `O=C(COC(=O)[C@@H]1CC(O)CN1S(=O)(=O)c1ccccc1[N+](=O)[O-])Nc1ccc2ccccc2c1` (stereo partly drawn), the AC50 is > 42 µM (inactive).
With `CCOc1ccc(NC(=O)C2CC(=O)N3CCCN=C3S2)cc1` (stereo not drawn), the AC50 was > 42 µM (inactive).
As to `CCCC(=O)Oc1c(S(=O)(=O)c2ccc(C)cc2)c(C)nn1C(C)(C)C`, the AC50 is > 42 µM (inactive).
As to `CSc1ncc2ncn(C3OC(CO)C(O)C3O)c2n1` (stereo not drawn), the AC50 is > 42 µM (inactive).
`CCCC1Cc2c(sc3ncnc(N)c23)CO1` (stereo not drawn): the AC50 is > 42 µM (inactive).
Turning to `Cc1cc(Cl)c2oc(C(=O)NC3CCC(O)CC3)c(C)c2c1` (stereo not drawn), the AC50 is > 42 µM (inactive).
In the case of `COCC(=O)n1nc(-c2ccccc2)nc1NCc1ccc(N(C)C)cc1`, the AC50 was > 42 µM (inactive).
On to `CCC(c1nc2ccccc2c(=O)n1-c1nc2ccccc2s1)N1C(=O)c2ccccc2C1=O` (stereo not drawn), for which the AC50 is > 42 µM (inactive).
For `CCN(CC)CCNc1ncnc2c1[nH]c1ccc(OC)cc12`, the AC50 is > 42 µM (inactive).
For `CCSc1nc2ccccc2c(=O)n1C1CCOC(C)(C)C1` (stereo not drawn), the AC50 was > 42 µM (inactive).
Turning to `O=C(c1ccccc1F)N1CCN=C1SCc1cccnc1`, the AC50 was > 42 µM (inactive).
On to `CCOc1ccccc1CN1CCNC(=O)C1CC(=O)NCCN1CCOC1=O` (stereo not drawn), for which the AC50 is > 42 µM (inactive).
Next, `CCn1nc(C(=O)OCc2cccc(S(=O)(=O)N(C)C)c2)c2ccccc2c1=O`: > 42 µM (inactive).
Next, `CCOC(=O)c1sc(NC(=O)C(CC)OC(=O)c2ccco2)nc1C` (stereo not drawn): > 42 µM (inactive); `COCCn1c(SCC(=O)NCc2cccs2)nnc1-c1ccc(OC)cc1`: > 42 µM (inactive).
In the case of `Cc1cc(NC(=O)CC2CCCC2)ccc1Br`, the AC50 was > 42 µM (inactive).
For `Clc1ccc(CN(Cc2ccccc2)C(c2cccs2)c2nnnn2C2CCCC2)cc1` (stereo not drawn), the AC50 was > 42 µM (inactive).
Next, `O=C1OCc2cc(NS(=O)(=O)c3cccs3)ccc21`: > 42 µM (inactive); `CCC1(CC)NC(=O)N(CC(=O)N2N=C(c3ccc(Cl)cc3)CC2c2ccco2)C1=O` (stereo not drawn): > 42 µM (inactive).
In the case of `CN(c1ccccc1C(=O)N1CCN(Cc2ccc3c(c2)OCO3)CC1)S(C)(=O)=O`, the AC50 is > 42 µM (inactive).
Consider `Cc1ccc(SCCNC(=O)CN2C(=O)c3ccccc3S2(=O)=O)cc1`, for which the AC50 is > 42 µM (inactive).
On to `C=C1C2C[C@@]3([C@@H]1O)[C@@H](C[C@@H]2O)[C@@]12C4[C@@H]3C[C@@H]1[C@@](C)(CC[C@@H]2O)CN4CC`, for which the AC50 is > 42 µM (inactive).
For the compound `CCOC(=O)C1=C[C@]2(CC)CCCN3CCc4c(n1c1ccccc41)[C@@H]32`, the AC50 was > 42 µM (inactive).
With `O=C(Nc1cccnc1Cl)c1cc2ccccc2o1`, the AC50 was > 42 µM (inactive).
In the case of `COC(=O)[C@@]12CCCCN1[C@H](c1ccc(-c3cccc(Cl)c3)c(OC)c1)[C@H]1C(=O)N(C)C(=O)[C@H]12`, the AC50 is > 42 µM (inactive).
In the case of `O=S1(=O)NC(c2ccccc2)CC(CC2CCCCC2)O1` (stereo not drawn), the AC50 was 38.7 µM.
Next, `COc1cc(/C=N/NC(=O)c2ccncc2)ccc1OC(=O)c1ccco1`: > 42 µM (inactive); `O=C(OCC(=O)N1CCN(c2ccccc2)CC1)c1nc(Cl)ccc1Cl`: > 42 µM (inactive); `Cc1ccc(-c2csc3ncn(CC(=O)N4CCOCC4)c(=O)c23)cc1`: > 42 µM (inactive).
`CC(C)(C)NC(=O)NC(=O)CN1CCN(S(=O)(=O)c2ccc3c(c2)OCCO3)CC1`: the AC50 was > 21 µM (inactive).
Turning to `CCn1cc(C(=O)N(C)c2ccc(OC)cc2OC)c2cc(OC)c(OC)cc2c1=O`, the AC50 was > 42 µM (inactive).
On to `Cc1ccc(C2=NN(CC(=O)NCc3cccs3)C(=O)CC2)cc1`, for which the AC50 is > 42 µM (inactive).
`COc1ccc2cc(C(=O)Nc3ccc(Cl)cc3)sc(=O)c2c1OC`: the AC50 was > 42 µM (inactive).
Consider `COc1ccc(OC)c(NC(=O)CNC(=O)Cn2ccc3ccccc3c2=O)c1`, for which the AC50 is > 42 µM (inactive).
`COc1ccc(C(=O)COc2ccc3ccc(=O)oc3c2)cc1`: the AC50 is > 42 µM (inactive).
With `CCN1C(=O)N(c2ccc(Cl)cc2)C(C)=CC1(C)C`, the AC50 is > 42 µM (inactive).
Regarding `CCOc1ccc(-c2nc(C#N)c(N3CCOCC3)o2)cc1`, the AC50 was > 42 µM (inactive).
Turning to `CCN1C(=O)N(C)[C@@H](c2ccccc2)C(C(=O)OC)=C1C`, the AC50 was > 42 µM (inactive).
With `Cc1noc(C)c1S(=O)(=O)N1CCCC(C(=O)NCC2CCCO2)C1` (stereo not drawn), the AC50 is > 42 µM (inactive).
As for `CSc1nncc(/C(C)=N\Nc2cccc(C)c2)n1`, the AC50 is > 42 µM (inactive).
As for `CC1(C)NC(=O)N(CC(=O)O)C1=O`, the AC50 is > 42 µM (inactive).
To `CC(=O)N1CC(=O)Nc2ccc(Cl)cc2C1c1ccccc1` (stereo not drawn) belongs > 42 µM (inactive).
With `CN(C)c1ccc(C(=O)N2CCCC(CCC(=O)N3CCN(c4ccccn4)CC3)C2)cc1` (stereo not drawn), the AC50 was > 42 µM (inactive).
In the case of `N#CC1=C(N)Nc2ncnn2C1c1ccc([N+](=O)[O-])cc1` (stereo not drawn), the AC50 was > 42 µM (inactive).
To `COc1cccc(N2CCN(C3CCCC(C)C3)CC2)c1` (stereo not drawn) belongs > 42 µM (inactive).
Regarding `Cc1ccc(S(=O)(=O)Cc2ccc(C(=O)N3CCN(c4ccccn4)CC3)o2)cc1`, the AC50 was > 42 µM (inactive).
In the case of `Cc1cc(C)cc(OC(=O)CS(=O)c2ccc(C(F)(F)F)cc2[N+](=O)[O-])c1` (stereo not drawn), the AC50 is 3.48 µM.
For the compound `CCCCN(C)C(=O)CCC(=O)Nc1ccc2nc(N3CCN(C)CC3)cc(C)c2c1`, the AC50 is > 42 µM (inactive).
Turning to `Cc1nc(C)n(CC(=O)N2CCCC(C(=O)c3cccc4ccccc34)C2)n1` (stereo not drawn), the AC50 was > 42 µM (inactive).
With `Cc1cc(NC(=O)CCC(=O)N(c2cccnc2)C(C(=O)NC2CCCC2)c2ccccc2)no1` (stereo not drawn), the AC50 was > 42 µM (inactive).
As for `CC(=O)c1ccc(Oc2cc(C)nc(N3CCOCC3)n2)cc1`, the AC50 was > 42 µM (inactive).
To `COc1ccccc1NC(NC(=O)c1ccco1)C(=O)c1ccccc1` (stereo not drawn) belongs > 42 µM (inactive); to `CCC(C)c1ccc(S(=O)(=O)N2CCN(C(=O)COc3ccc4c(C)cc(=O)oc4c3)CC2)cc1` (stereo not drawn), > 42 µM (inactive).
As for `COc1ccc(C(=O)OCC(=O)c2ccc(C)c(S(=O)(=O)N3CCOCC3)c2)cc1OC`, the AC50 was > 42 µM (inactive).
With `CC(C)(c1ccccc1)c1ccc(OCCN2CCOCC2)cc1`, the AC50 is > 42 µM (inactive).
Consider `N#Cc1c(-c2ccco2)cc(-c2cccnc2)nc1N`, for which the AC50 was > 42 µM (inactive).
`O=C(CCC(=O)OCC(=O)c1ccc(Br)cc1)Nc1cccc2cccnc12`: the AC50 is > 42 µM (inactive).
For the compound `O=C1N=C(N2CCN(c3ccccc3)CC2)SC1Cc1ccccc1` (stereo not drawn), the AC50 was > 42 µM (inactive).
`O=C(CSc1nnc2ccccn12)NNC(=O)c1ccc(Cl)cc1`: the AC50 is > 42 µM (inactive).
Regarding `NS(=O)(=O)c1ccc(CCNC(=O)c2ccc([N+](=O)[O-])s2)cc1`, the AC50 is > 42 µM (inactive).

The values are drawn from PubChem BioAssay AID463204 (Broad Institute, 2010).
